Data: ChEMBL document CHEMBL4725318, “New vinyl-1,2,4-triazole derivatives as antimicrobial agents: Synthesis, biological evaluation and molecular docking studies” (2020)
Values after ≈ are worked out from the molar mass of the structure shown.

Legend:
Type in all cases: functional
[1] = system: Aspergillus versicolor; assay: Fungicidal activity Aspergillus versicolor
[2] = system: Aspergillus fumigatus; assay: Antifungal activity Aspergillus fumigatus by microdilution method
[3] = system: Penicillium cyclopium; assay: Fungicidal activity Penicillium verrucosum var. cyclopium
[4] = system: Pectobacterium carotovorum; assay: Bactericidal activity against Erwinia carotovora
[5] = system: Erwinia amylovora; assay: Antibacterial activity against Erwinia amylovora by microdilution method
[6] = system: Aspergillus fumigatus; assay: Fungicidal activity Aspergillus fumigatus
[7] = system: Bacillus subtilis; assay: Antibacterial activity against Bacillus subtilis by microdilution method
[8] = system: Erwinia amylovora; assay: Bactericidal activity against Erwinia amylovora
[9] = system: Trichoderma viride; assay: Antifungal activity Trichoderma viride by microdilution method
[10] = system: Pseudomonas fluorescens; assay: Antibacterial activity against Pseudomonas fluorescens by microdilution method
[11] = system: Penicillium ochrochloron; assay: Antifungal activity Penicillium ochrochloron by microdilution method
[12] = system: Pectobacterium carotovorum; assay: Antibacterial activity against Erwinia carotovora by microdilution method
[13] = system: Aspergillus niger; assay: Fungicidal activity Aspergillus niger
[14] = system: Talaromyces funiculosus; assay: Fungicidal activity Penicillium funiculosum
[15] = system: Penicillium cyclopium; assay: Antifungal activity Penicillium verrucosum var. cyclopium by microdilution method
[16] = system: Talaromyces funiculosus; assay: Antifungal activity Penicillium funiculosum by microdilution method
[17] = system: Aspergillus ochraceus; assay: Antifungal activity Aspergillus ochraceus by microdilution method
[18] = system: Xanthomonas campestris; assay: Bactericidal activity against Xanthomonas campestris
[19] = system: Trichoderma viride; assay: Fungicidal activity Trichoderma viride
[20] = system: Pseudomonas fluorescens; assay: Bactericidal activity against Pseudomonas fluorescens
[21] = system: Aspergillus versicolor; assay: Antifungal activity Aspergillus versicolor by microdilution method
[22] = system: Xanthomonas campestris; assay: Antibacterial activity against Xanthomonas campestris by microdilution method
[23] = system: Aspergillus niger; assay: Antifungal activity Aspergillus niger by microdilution method
[24] = system: Penicillium ochrochloron; assay: Fungicidal activity Penicillium ochrochloron
[25] = system: Bacillus subtilis; assay: Bactericidal activity against Bacillus subtilis
[26] = system: Aspergillus ochraceus; assay: Fungicidal activity Aspergillus ochraceus

Row | SMILES | MFC [1] [µM] | MIC [2] [µM] | MFC [3] [µM] | MBC [4] [µM] | MIC [5] [µM] | MFC [6] [µM] | MIC [7] [µM] | MBC [8] [µM] | MIC [9] [µM] | MIC [10] [µM] | MIC [11] [µM] | MIC [12] [µM] | MFC [13] [µM] | MFC [14] [µM] | MIC [15] [µM] | MIC [16] [µM] | MIC [17] [µM] | MBC [18] [µM] | MFC [19] [µM] | MBC [20] [µM] | also measured
1 | O=C(/C(=C/c1ccccc1)n1cncn1)c1ccc(Cl)cc1Cl | 220 (≈ 75.7 µg/mL) | 160 (≈ 55.1 µg/mL) | 440 (≈ 151 µg/mL) | 5.8 (≈ 2 µg/mL) | 2.9 (≈ 0.998 µg/mL) | 220 (≈ 75.7 µg/mL) | 2.9 (≈ 0.998 µg/mL) | 2.9 (≈ 0.998 µg/mL) | 50 (≈ 17.2 µg/mL) | 2.9 (≈ 0.998 µg/mL) | 160 (≈ 55.1 µg/mL) | 2.9 (≈ 0.998 µg/mL) | 220 (≈ 75.7 µg/mL) | 440 (≈ 151 µg/mL) | 220 (≈ 75.7 µg/mL) | 220 (≈ 75.7 µg/mL) | 100 (≈ 34.4 µg/mL) | 2.9 (≈ 0.998 µg/mL) | 100 (≈ 34.4 µg/mL) | 2.9 (≈ 0.998 µg/mL) | MIC [21]: 80 µM (≈ 27.5 µg/mL); MIC [22]: 2.9 µM (≈ 0.998 µg/mL); MIC [23]: 160 µM (≈ 55.1 µg/mL); MFC [24]: 440 µM (≈ 151 µg/mL); MBC [25]: 5.8 µM (≈ 2 µg/mL); MFC [26]: 220 µM (≈ 75.7 µg/mL)
2 | O=C(/C(=C/c1cc([N+](=O)[O-])ccc1O)n1cncn1)c1ccc(Cl)cc1 | 200 (≈ 74.2 µg/mL) | 200 (≈ 74.2 µg/mL) | 410 (≈ 152 µg/mL) | 2.7 (≈ 1 µg/mL) | 2.7 (≈ 1 µg/mL) | 410 (≈ 152 µg/mL) | 2.7 (≈ 1 µg/mL) | 2.7 (≈ 1 µg/mL) | 100 (≈ 37.1 µg/mL) | 1.3 (≈ 0.482 µg/mL) | 100 (≈ 37.1 µg/mL) | 2.7 (≈ 1 µg/mL) | 200 (≈ 74.2 µg/mL) | 200 (≈ 74.2 µg/mL) | 200 (≈ 74.2 µg/mL) | 150 (≈ 55.6 µg/mL) | 100 (≈ 37.1 µg/mL) | 2.7 (≈ 1 µg/mL) | 200 (≈ 74.2 µg/mL) | 2.7 (≈ 1 µg/mL) | MIC [21]: 100 µM (≈ 37.1 µg/mL); MIC [22]: 1.3 µM (≈ 0.482 µg/mL); MIC [23]: 150 µM (≈ 55.6 µg/mL); MFC [24]: 200 µM (≈ 74.2 µg/mL); MBC [25]: 2.7 µM (≈ 1 µg/mL); MFC [26]: 200 µM (≈ 74.2 µg/mL)
3 | CN(C)c1ccc(/C=C(/C(=O)c2ccc(-c3ccccc3)cc2)n2cncn2)cc1 | 510 (≈ 201 µg/mL) | 250 (≈ 98.6 µg/mL) | 510 (≈ 201 µg/mL) | 5.1 (≈ 2.01 µg/mL) | 2.5 (≈ 0.986 µg/mL) | 510 (≈ 201 µg/mL) | 2.5 (≈ 0.986 µg/mL) | 2.5 (≈ 0.986 µg/mL) | 90 (≈ 35.5 µg/mL) | 2.5 (≈ 0.986 µg/mL) | 130 (≈ 51.3 µg/mL) | 2.5 (≈ 0.986 µg/mL) | 510 (≈ 201 µg/mL) | 250 (≈ 98.6 µg/mL) | 250 (≈ 98.6 µg/mL) | 180 (≈ 71 µg/mL) | 130 (≈ 51.3 µg/mL) | 5.1 (≈ 2.01 µg/mL) | 130 (≈ 51.3 µg/mL) | 2.5 (≈ 0.986 µg/mL) | MIC [21]: 250 µM (≈ 98.6 µg/mL); MIC [22]: 5.1 µM (≈ 2.01 µg/mL); MIC [23]: 250 µM (≈ 98.6 µg/mL); MFC [24]: 250 µM (≈ 98.6 µg/mL); MBC [25]: 5.1 µM (≈ 2.01 µg/mL); MFC [26]: 250 µM (≈ 98.6 µg/mL)
4 | O=C(/C(=C/c1ccc([N+](=O)[O-])cc1)n1cncn1)c1ccc(Cl)cc1 | 190 (≈ 67.4 µg/mL) | 100 (≈ 35.5 µg/mL) | 190 (≈ 67.4 µg/mL) | 1.3 (≈ 0.461 µg/mL) | 1.3 (≈ 0.461 µg/mL) | 190 (≈ 67.4 µg/mL) | 1.3 (≈ 0.461 µg/mL) | 1.3 (≈ 0.461 µg/mL) | 70 (≈ 24.8 µg/mL) | 0.6 (≈ 0.213 µg/mL) | 100 (≈ 35.5 µg/mL) | 1.3 (≈ 0.461 µg/mL) | 190 (≈ 67.4 µg/mL) | 190 (≈ 67.4 µg/mL) | 140 (≈ 49.7 µg/mL) | 140 (≈ 49.7 µg/mL) | 70 (≈ 24.8 µg/mL) | 1.3 (≈ 0.461 µg/mL) | 100 (≈ 35.5 µg/mL) | 1.3 (≈ 0.461 µg/mL) | MIC [21]: 100 µM (≈ 35.5 µg/mL); MIC [22]: 1.3 µM (≈ 0.461 µg/mL); MIC [23]: 140 µM (≈ 49.7 µg/mL); MFC [24]: 190 µM (≈ 67.4 µg/mL); MBC [25]: 1.3 µM (≈ 0.461 µg/mL); MFC [26]: 100 µM (≈ 35.5 µg/mL)
5 | O=C(/C(=C/c1cccc(O)c1)n1cncn1)c1ccccc1 | 520 (≈ 151 µg/mL) | 380 (≈ 111 µg/mL) | 520 (≈ 151 µg/mL) | 1.7 (≈ 0.495 µg/mL) | 1.7 (≈ 0.495 µg/mL) | 520 (≈ 151 µg/mL) | 6.9 (≈ 2.01 µg/mL) | 3.4 (≈ 0.99 µg/mL) | 190 (≈ 55.3 µg/mL) | 1.7 (≈ 0.495 µg/mL) | 260 (≈ 75.7 µg/mL) | 1.7 (≈ 0.495 µg/mL) | 100 (≈ 29.1 µg/mL) | 520 (≈ 151 µg/mL) | 380 (≈ 111 µg/mL) | 260 (≈ 75.7 µg/mL) | 190 (≈ 55.3 µg/mL) | 3.4 (≈ 0.99 µg/mL) | 260 (≈ 75.7 µg/mL) | 1.7 (≈ 0.495 µg/mL) | MIC [21]: 260 µM (≈ 75.7 µg/mL); MIC [22]: 1.7 µM (≈ 0.495 µg/mL); MIC [23]: 520 µM (≈ 151 µg/mL); MFC [24]: 520 µM (≈ 151 µg/mL); MBC [25]: 6.9 µM (≈ 2.01 µg/mL); MFC [26]: 520 µM (≈ 151 µg/mL)
